Assay results reported in PubChem BioAssay (NCI).
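48-hour exposure; five concentrations; linearly interpolated endpoints. GI50: concentration for 50% inhibition of growth. TGI: total growth inhibition.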

How the values were obtained:
Test in all cases: NCI anticancer screen, dose series, 48 h
HOP-92 NSCLC = tested on: HOP-92 NSCLC
SR leukemia = tested on: SR leukemia
UACC-257 melanoma = tested on: UACC-257 melanoma
UO-31 renal = tested on: UO-31 renal
SK-MEL-5 melanoma = tested on: SK-MEL-5 melanoma
EKVX NSCLC = tested on: EKVX NSCLC
KM12 colon = tested on: KM12 colon
OVCAR-8 ovarian = tested on: OVCAR-8 ovarian
MCF7 breast = tested on: MCF7 breast
NCI-H522 lung = tested on: NCI-H522 lung
CAKI-1 renal = tested on: CAKI-1 renal
T-47D breast = tested on: T-47D breast
A498 renal = tested on: A498 renal
OVCAR-4 ovarian = tested on: OVCAR-4 ovarian
BT-549 breast = tested on: BT-549 breast
NCI-H460 lung = tested on: NCI-H460 lung
MOLT-4 leukemia = tested on: MOLT-4 leukemia
MDA-MB-435 = tested on: MDA-MB-435
SF-539 CNS = tested on: SF-539 CNS
SW-620 colon = tested on: SW-620 colon
HCC-2998 colon = tested on: HCC-2998 colon
SK-MEL-2 melanoma = tested on: SK-MEL-2 melanoma
MALME-3M melanoma = tested on: MALME-3M melanoma
NCI-H226 lung = tested on: NCI-H226 lung
UACC-62 melanoma = tested on: UACC-62 melanoma
SF-268 CNS = tested on: SF-268 CNS
SK-MEL-28 melanoma = tested on: SK-MEL-28 melanoma
OVCAR-3 ovarian = tested on: OVCAR-3 ovarian
SN12C renal = tested on: SN12C renal
MDA-MB-231 breast = tested on: MDA-MB-231 breast
IGROV1 ovarian = tested on: IGROV1 ovarian
HOP-62 NSCLC = tested on: HOP-62 NSCLC
DU-145 prostate = tested on: DU-145 prostate
RPMI-8226 leukemia = tested on: RPMI-8226 leukemia
ACHN renal = tested on: ACHN renal
M14 melanoma = tested on: M14 melanoma
HCT-15 colon = tested on: HCT-15 colon
SNB-19 CNS = tested on: SNB-19 CNS
SF-295 CNS = tested on: SF-295 CNS
HCT-116 colon = tested on: HCT-116 colon
K-562 leukemia = tested on: K-562 leukemia
TK-10 renal = tested on: TK-10 renal
LOX IMVI melanoma = tested on: LOX IMVI melanoma
PC-3 prostate = tested on: PC-3 prostate
A549 NSCLC = tested on: A549 NSCLC
U251 CNS = tested on: U251 CNS
HS 578T breast = tested on: HS 578T breast
NCI/ADR-RES ovarian = tested on: NCI/ADR-RES ovarian
COLO 205 colon = tested on: COLO 205 colon
OVCAR-5 ovarian = tested on: OVCAR-5 ovarian
786-0 renal = tested on: 786-0 renal
HT29 colon = tested on: HT29 colon
CCRF-CEM leukemia = tested on: CCRF-CEM leukemia
NCI-H23 lung = tested on: NCI-H23 lung
SK-OV-3 ovarian = tested on: SK-OV-3 ovarian
RXF 393 renal = tested on: RXF 393 renal
SNB-75 CNS = tested on: SNB-75 CNS
HL-60(TB) leukemia = tested on: HL-60(TB) leukemia

COc1ccc2c(c1)C(=O)c1c-2c(NCCN(C)C)nc2ccccc12
GI50 (HOP-92 NSCLC): 0.0658 µM
TGI (HOP-92 NSCLC): 6.54 µM
GI50 (SR leukemia): 0.35 µM
TGI (SR leukemia): 2.66 µM
GI50 (UACC-257 melanoma): 4.6 µM
TGI (UACC-257 melanoma): 17.5 µM
GI50 (UO-31 renal): 9.98 µM
TGI (UO-31 renal): 22 µM
GI50 (SK-MEL-5 melanoma): 6.47 µM
TGI (SK-MEL-5 melanoma): 19.7 µM
GI50 (EKVX NSCLC): 3.06 µM
TGI (EKVX NSCLC): 16.4 µM
GI50 (KM12 colon): 2.94 µM
TGI (KM12 colon): 23 µM
GI50 (OVCAR-8 ovarian): 0.496 µM
TGI (OVCAR-8 ovarian): 5.53 µM
GI50 (MCF7 breast): 2 µM
TGI (MCF7 breast): 12.2 µM
GI50 (NCI-H522 lung): 6.92 µM
TGI (NCI-H522 lung): 20.9 µM
GI50 (CAKI-1 renal): 0.373 µM
TGI (CAKI-1 renal): 2.48 µM
GI50 (T-47D breast): 14.8 µM
TGI (T-47D breast): 34.6 µM
GI50 (A498 renal): 11.3 µM
TGI (A498 renal): 24.6 µM
GI50 (OVCAR-4 ovarian): 12.2 µM
TGI (OVCAR-4 ovarian): 36.3 µM
GI50 (BT-549 breast): 5.99 µM
TGI (BT-549 breast): 19.3 µM
GI50 (NCI-H460 lung): 0.671 µM
TGI (NCI-H460 lung): 10.6 µM
GI50 (MOLT-4 leukemia): 0.291 µM
TGI (MOLT-4 leukemia): 1.15 µM
GI50 (MDA-MB-435): 5.06 µM
TGI (MDA-MB-435): 20.4 µM
GI50 (SF-539 CNS): 12.4 µM
TGI (SF-539 CNS): 25.2 µM
GI50 (SW-620 colon): 3.4 µM
TGI (SW-620 colon): 14 µM
GI50 (HCC-2998 colon): 2.52 µM
TGI (HCC-2998 colon): 13.4 µM
GI50 (SK-MEL-2 melanoma): 15.7 µM
TGI (SK-MEL-2 melanoma): 31 µM
GI50 (MALME-3M melanoma): 12.4 µM
TGI (MALME-3M melanoma): 32.7 µM
GI50 (NCI-H226 lung): 16.2 µM
TGI (NCI-H226 lung): 32.5 µM
GI50 (UACC-62 melanoma): 15.8 µM
TGI (UACC-62 melanoma): 29.4 µM
GI50 (SF-268 CNS): 2.97 µM
TGI (SF-268 CNS): 15.5 µM
GI50 (SK-MEL-28 melanoma): 13.9 µM
TGI (SK-MEL-28 melanoma): 26.9 µM
GI50 (OVCAR-3 ovarian): 2.29 µM
TGI (OVCAR-3 ovarian): 9.34 µM
GI50 (SN12C renal): 3.74 µM
TGI (SN12C renal): 16 µM
GI50 (MDA-MB-231 breast): 6.59 µM
TGI (MDA-MB-231 breast): 19.9 µM
GI50 (IGROV1 ovarian): 1.86 µM
TGI (IGROV1 ovarian): 7.14 µM
GI50 (HOP-62 NSCLC): 14.3 µM
TGI (HOP-62 NSCLC): 27.4 µM
GI50 (DU-145 prostate): 2.95 µM
TGI (DU-145 prostate): 17.5 µM
GI50 (RPMI-8226 leukemia): 1.21 µM
TGI (RPMI-8226 leukemia): 4.53 µM
GI50 (ACHN renal): 1.17 µM
TGI (ACHN renal): 6.43 µM
GI50 (M14 melanoma): 15.8 µM
TGI (M14 melanoma): 29.2 µM
GI50 (HCT-15 colon): 2.72 µM
TGI (HCT-15 colon): 16.6 µM
GI50 (SNB-19 CNS): 3.28 µM
TGI (SNB-19 CNS): 12.7 µM
GI50 (SF-295 CNS): 3.83 µM
TGI (SF-295 CNS): 17.5 µM
GI50 (HCT-116 colon): 15.1 µM
TGI (HCT-116 colon): 28.3 µM
GI50 (K-562 leukemia): 2.62 µM
TGI (K-562 leukemia): 14.8 µM
GI50 (TK-10 renal): 8.19 µM
TGI (TK-10 renal): 28.8 µM
GI50 (LOX IMVI melanoma): 2.01 µM
TGI (LOX IMVI melanoma): 11.6 µM
GI50 (PC-3 prostate): 2.93 µM
TGI (PC-3 prostate): 14.2 µM
GI50 (A549 NSCLC): 0.946 µM
TGI (A549 NSCLC): 4.49 µM
GI50 (U251 CNS): 2.47 µM
TGI (U251 CNS): 11.7 µM
GI50 (HS 578T breast): 9.28 µM
TGI (HS 578T breast): 26.8 µM
GI50 (NCI/ADR-RES ovarian): 3.66 µM
TGI (NCI/ADR-RES ovarian): 14.3 µM
GI50 (COLO 205 colon): 4.51 µM
TGI (COLO 205 colon): 19.3 µM
GI50 (OVCAR-5 ovarian): 4.23 µM
TGI (OVCAR-5 ovarian): 16 µM
GI50 (786-0 renal): 2.65 µM
TGI (786-0 renal): 9.1 µM
GI50 (HT29 colon): 4.41 µM
TGI (HT29 colon): 15.5 µM
GI50 (CCRF-CEM leukemia): 0.561 µM
TGI (CCRF-CEM leukemia): 11.5 µM

Fc1c(F)c(C(F)(F)F)c(F)c(F)c1N/N=C/c1cn(Cc2ccccc2)c2ccccc12
TGI (HOP-92 NSCLC): 60.2 µM
TGI (SR leukemia): 67 µM
TGI (UACC-257 melanoma): 54 µM
TGI (UO-31 renal): 52.9 µM
TGI (SK-MEL-5 melanoma): 36 µM
TGI (EKVX NSCLC): 43 µM
TGI (KM12 colon): 45 µM
TGI (OVCAR-8 ovarian): > 100 µM
TGI (MCF7 breast): 69.5 µM
TGI (NCI-H522 lung): 70.1 µM
TGI (CAKI-1 renal): 54.3 µM
TGI (T-47D breast): 83.6 µM
TGI (NCI-H23 lung): 79.9 µM
TGI (A498 renal): 88.6 µM
TGI (OVCAR-4 ovarian): 78.9 µM
TGI (BT-549 breast): 80.7 µM
TGI (NCI-H460 lung): 27.9 µM
TGI (MOLT-4 leukemia): 83.3 µM
TGI (MDA-MB-435): 54.5 µM
TGI (SF-539 CNS): 42.1 µM
TGI (SW-620 colon): > 100 µM
TGI (SK-MEL-2 melanoma): 55.7 µM
TGI (MALME-3M melanoma): > 100 µM
TGI (UACC-62 melanoma): 61.5 µM
TGI (SF-268 CNS): > 100 µM
TGI (SK-MEL-28 melanoma): > 100 µM
TGI (OVCAR-3 ovarian): 36.6 µM
TGI (SN12C renal): 92 µM
TGI (MDA-MB-231 breast): 45.6 µM
TGI (IGROV1 ovarian): > 100 µM
TGI (HOP-62 NSCLC): 22.4 µM
TGI (DU-145 prostate): > 100 µM
TGI (SK-OV-3 ovarian): 48.4 µM
TGI (RPMI-8226 leukemia): 62.7 µM
TGI (ACHN renal): 81.7 µM
TGI (M14 melanoma): 43 µM
TGI (HCT-15 colon): > 100 µM
TGI (SNB-19 CNS): 76.8 µM
TGI (SF-295 CNS): 36.2 µM
TGI (HCT-116 colon): 89.5 µM
TGI (K-562 leukemia): 87.1 µM
TGI (TK-10 renal): 66.4 µM
TGI (LOX IMVI melanoma): 47.3 µM
TGI (RXF 393 renal): 41.5 µM
TGI (SNB-75 CNS): 62.4 µM
TGI (PC-3 prostate): 79.2 µM
TGI (A549 NSCLC): 72.7 µM
TGI (U251 CNS): > 100 µM
TGI (HS 578T breast): > 100 µM
TGI (HL-60(TB) leukemia): 52.6 µM
TGI (NCI/ADR-RES ovarian): 59.1 µM
TGI (COLO 205 colon): 26.8 µM
TGI (OVCAR-5 ovarian): 41.9 µM
TGI (786-0 renal): 66.8 µM
TGI (HT29 colon): 49.3 µM
TGI (CCRF-CEM leukemia): 48.4 µM
